Measurements: ChEMBL document CHEMBL3046279, “Comparison of larvicidal, adulticidal and acaricidal activity of two geometrical butylidenephthalide isomers” (2006)
The source made the active and inactive calls. No cut-off for these calls is given here.

Key:
[1] = test system: Dermatophagoides farinae; assay: Acaricidal activity against Dermatophagoides farinae assessed as mortality at 2.5 ug/cm2 after 24 hr relative to control; format: functional
[2] = test system: Ctenocephalides felis; assay: Insecticidal activity against adult Ctenocephalides felis at 200 ug/cm2; format: functional, organism-based
[3] = test system: Tyrophagus putrescentiae; assay: Acaricidal activity against Tyrophagus putrescentiae assessed as mortality at 20 ug/cm2 after 24 hr relative to control; format: functional
[4] = test system: Drosophila melanogaster; assay: Ratio of rotenone LD50 to compound LD50 for adult Drosophila melanogaster; format: functional
[5] = test system: Drosophila melanogaster; assay: Ratio of rotenone LC50 to compound LC50 for Drosophila melanogaster larvae; format: functional
[6] = test system: Tyrophagus putrescentiae; assay: Acaricidal activity against Tyrophagus putrescentiae assessed as mortality at 50 ug/cm2 after 24 hr relative to control; format: functional
[7] = test system: Tyrophagus putrescentiae; assay: Acaricidal activity against Tyrophagus putrescentiae assessed as mortality after 24 hr; format: functional
[8] = test system: Drosophila melanogaster; assay: Adulticidal activity against Drosophila melanogaster […] assessed as mortality measured per adult; format: functional
[9] = test system: Dermatophagoides farinae; assay: Acaricidal activity against Dermatophagoides farinae assessed as mortality at 5 ug/cm2 after 24 hr relative to control; format: functional
[10] = test system: Tyrophagus putrescentiae; assay: Acaricidal activity against Tyrophagus putrescentiae assessed as mortality at 10 ug/cm2 after 24 hr relative to control; format: functional
[11] = test system: Tyrophagus putrescentiae; assay: Ratio of N,N-diethyl-m-toulamide (DEET) LC50 to compound LC50 for Tyrophagus putrescentiae; format: functional
[12] = test system: Drosophila melanogaster; assay: Larvicidal activity against Drosophila melanogaster larvae assessed as mortality administered through diet after 8 days; format: functional
[13] = test system: Dermatophagoides farinae; assay: Acaricidal activity against Dermatophagoides farinae assessed as mortality at 50 ug/cm2 after 24 hr relative to control; format: functional
[14] = test system: Dermatophagoides farinae; assay: Acaricidal activity against Dermatophagoides farinae assessed as mortality at 10 ug/cm2 after 24 hr relative to control; format: functional
[15] = test system: Tyrophagus putrescentiae; assay: Acaricidal activity against Tyrophagus putrescentiae assessed as mortality at 5 ug/cm2 after 24 hr relative to control; format: functional
[16] = test system: Dermatophagoides farinae; assay: Acaricidal activity against Dermatophagoides farinae assessed as mortality at 20 ug/cm2 after 24 hr relative to control; format: functional
[17] = test system: Tyrophagus putrescentiae; assay: Acaricidal activity against Tyrophagus putrescentiae assessed as mortality at 2.5 ug/cm2 after 24 hr relative to control; format: functional
[18] = test system: Dermatophagoides farinae; assay: Ratio of N,N-diethyl-m-toulamide (DEET) LC50 to compound LC50 for Dermatophagoides farinae; format: functional
[19] = test system: Dermatophagoides farinae; assay: Acaricidal activity against Dermatophagoides farinae assessed as mortality after 24 hr relative to control; format: functional
[20] = test system: Dermatophagoides farinae; assay: Acaricidal activity against Dermatophagoides farinae assessed as mortality at 40 ug/cm2 after 24 hr relative to control; format: functional
[21] = test system: Tyrophagus putrescentiae; assay: Acaricidal activity against Tyrophagus putrescentiae assessed as mortality at 100 ug/cm2 after 24 hr relative to control; format: functional
[22] = test system: Dermatophagoides farinae; assay: Acaricidal activity against Dermatophagoides farinae assessed as mortality at 30 ug/cm2 after 24 hr relative to control; format: functional
[23] = test system: Tyrophagus putrescentiae; assay: Acaricidal activity against Tyrophagus putrescentiae assessed as mortality at 30 ug/cm2 after 24 hr relative to control; format: functional

Compound	mortality at 2.5 µg/cm2 [1]	Activity [2]	mortality at 20 µg/cm2 [3]	Ratio [4]	RatioLC50 [5]	mortality at 50 µg/cm2 [6]	LC50 [7]	LD50 [8]	mortality at 5 µg/cm2 [9]	mortality at 10 µg/cm2 [10]	RatioLC50 [11]	LC50 [12]	mortality at 50 µg/cm2 [13]	mortality at 10 µg/cm2 [14]	mortality at 20 µg/cm2 [16]	mortality at 2.5 µg/cm2 [17]	RatioLC50 [18]	LC50 [19]	other results
CCC/C=C1\OC(=O)c2ccccc21 [Z-butylidenephthalide]	15.6%	inactive	56.3%	4.38	0.023	74.1%	20.37 microg/cm2	0.84 µg	32.1%	22.8%	0.8	940 µM	100%	77.8%	100%	7.8%	2.25	5.76 microg/cm2	mortality at 5 µg/cm2 [15]: 12.9%
C=C(C)[C@H]1Cc2c(ccc3c2O[C@@H]2COc4cc(OC)c(OC)cc4[C@@H]2C3=O)O1 [ROTENONE]								3.68 µg				20 µM							
CCN(CC)C(=O)c1cccc(C)c1 [DIETHYLTOLUAMIDE]						100%	16.28 microg/cm2			20.8%			100%	33.2%	72.2%			12.98 microg/cm2	mortality at 40 µg/cm2 [20]: 100%; mortality at 100 µg/cm2 [21]: 100%; mortality at 30 µg/cm2 [22]: 100%; mortality at 30 µg/cm2 [23]: 81.1%
CCC/C=C1/OC(=O)c2ccccc21 [(E)-BUTYLIDENEPHTHALIDE]	12.2%	inactive	52.9%	3.91	0.01	57.2%	25.56 microg/cm2	0.94 µg	51.6%	33%	0.64	2070 µM	100%	94.7%	100%	12.3%	2.78	4.67 microg/cm2	
